From ChEMBL document CHEMBL5131502, “Improving the treatment of Parkinson's disease: Structure-based development of novel 5-HT2A receptor antagonists/inverse agonists” (Eur J Med Chem, 2022)
Calls of active or inactive are those of the source. The calls are words filed in the database; no cut-off is given here.

How the values were obtained:
[1] = target: T1, 5-hydroxytryptamine receptor 2A (Homo sapiens, UniProt P28223); test: Inverse agonist activity at 5-HT2A receptor (unknown origin) expressed in mouse NIH3T3 cells using o-nitrophenyl-D-galacto pyranoside incubated for 120 hrs; format: functional, cell-based
T1 sequence (P28223 whole entry): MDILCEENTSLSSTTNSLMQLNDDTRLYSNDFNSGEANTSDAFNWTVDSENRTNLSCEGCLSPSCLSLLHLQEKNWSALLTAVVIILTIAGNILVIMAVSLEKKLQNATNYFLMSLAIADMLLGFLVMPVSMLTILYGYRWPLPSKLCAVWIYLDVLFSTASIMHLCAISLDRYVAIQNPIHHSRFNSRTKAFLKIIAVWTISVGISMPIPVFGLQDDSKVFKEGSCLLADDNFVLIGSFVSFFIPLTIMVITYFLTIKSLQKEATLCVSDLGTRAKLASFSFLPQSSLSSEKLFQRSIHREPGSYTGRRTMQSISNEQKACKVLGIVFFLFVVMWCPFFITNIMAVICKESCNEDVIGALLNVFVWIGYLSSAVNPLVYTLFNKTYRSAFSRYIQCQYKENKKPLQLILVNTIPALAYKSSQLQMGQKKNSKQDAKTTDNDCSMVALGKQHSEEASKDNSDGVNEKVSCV

[2] = target: T1, 5-hydroxytryptamine receptor 2A; test: Antagonist activity at 5-HT2A receptor (unknown origin) expressed in CHO-K1 cells assessed as reduction in intracellular Ca2+ mobilization incubated for 15 mins by FLIPR assay; format: functional, cell-based
[3] = Metabolic stability in human liver microsomes assessed as half life at 100 uM preincubated for 10 mins followed by NADPH addition by LC/MS analysis; format: ADME, Microsome
[4] = Metabolic stability in human liver microsomes assessed as intrinsic clearance at 100 uM preincubated for 10 mins followed by NADPH addition by LC/MS analysis; format: ADME, Microsome; details: read-out: CLH
[5] = Metabolic stability in Sprague-Dawley rat liver microsomes assessed as compound remaining at 100 uM […] followed by NADPH addition by LC/MS analysis; format: ADME, Microsome; details: read-out: Stability
[6] = Metabolic stability in human liver microsomes assessed as compound remaining at 100 uM […] followed by NADPH addition by LC/MS analysis; format: ADME, Microsome; details: read-out: Stability
[7] = Metabolic stability in Sprague-Dawley rat liver microsomes assessed as half life at 100 uM preincubated for 10 mins followed by NADPH addition by LC/MS analysis; format: ADME, Microsome
[8] = Metabolic stability in Sprague-Dawley rat liver microsomes assessed as intrinsic clearance at 100 uM preincubated for 10 mins followed by NADPH addition by LC/MS analysis; format: ADME, Microsome; details: read-out: CLH
Rattus norvegicus [9] = test: Antiparkinson's activity in rat assessed as reduction of DOI-induced head-twitching at 6 micromol/kg, IG measured after 1 hr; format: functional, organism-based; details: dose 6.0 µmol/kg
[10] = target: T1, 5-hydroxytryptamine receptor 2A; test: Potency index, ratio of pimavanserin IC50 to test compound IC50 for inverse agonist activity at 5-HT2A receptor (unknown origin) expressed in mouse NIH3T3 cells using o-nitrophenyl-D-galacto pyranoside incubated for 120 hrs; format: cell-based
[11] = target: T1, 5-hydroxytryptamine receptor 2A; test: Potency index, ratio of pimavanserin IC50 to test compound IC50 for antagonist activity at 5-HT2A receptor (unknown origin) expressed in CHO-K1 cells assessed as reduction in intracellular Ca2+ mobilization incubated for 15 mins by FLIPR assay; format: functional, cell-based
[12] = target: Voltage-gated inwardly rectifying potassium channel KCNH2 (Homo sapiens, UniProt Q12809); test: Inhibition of hERG potassium channel expressed in CHO cells at -80 mV holding potential by whole cell patch clamp assay; format: toxicity, cell-based
Sequence of Voltage-gated inwardly rectifying potassium channel KCNH2 (Q12809 whole entry): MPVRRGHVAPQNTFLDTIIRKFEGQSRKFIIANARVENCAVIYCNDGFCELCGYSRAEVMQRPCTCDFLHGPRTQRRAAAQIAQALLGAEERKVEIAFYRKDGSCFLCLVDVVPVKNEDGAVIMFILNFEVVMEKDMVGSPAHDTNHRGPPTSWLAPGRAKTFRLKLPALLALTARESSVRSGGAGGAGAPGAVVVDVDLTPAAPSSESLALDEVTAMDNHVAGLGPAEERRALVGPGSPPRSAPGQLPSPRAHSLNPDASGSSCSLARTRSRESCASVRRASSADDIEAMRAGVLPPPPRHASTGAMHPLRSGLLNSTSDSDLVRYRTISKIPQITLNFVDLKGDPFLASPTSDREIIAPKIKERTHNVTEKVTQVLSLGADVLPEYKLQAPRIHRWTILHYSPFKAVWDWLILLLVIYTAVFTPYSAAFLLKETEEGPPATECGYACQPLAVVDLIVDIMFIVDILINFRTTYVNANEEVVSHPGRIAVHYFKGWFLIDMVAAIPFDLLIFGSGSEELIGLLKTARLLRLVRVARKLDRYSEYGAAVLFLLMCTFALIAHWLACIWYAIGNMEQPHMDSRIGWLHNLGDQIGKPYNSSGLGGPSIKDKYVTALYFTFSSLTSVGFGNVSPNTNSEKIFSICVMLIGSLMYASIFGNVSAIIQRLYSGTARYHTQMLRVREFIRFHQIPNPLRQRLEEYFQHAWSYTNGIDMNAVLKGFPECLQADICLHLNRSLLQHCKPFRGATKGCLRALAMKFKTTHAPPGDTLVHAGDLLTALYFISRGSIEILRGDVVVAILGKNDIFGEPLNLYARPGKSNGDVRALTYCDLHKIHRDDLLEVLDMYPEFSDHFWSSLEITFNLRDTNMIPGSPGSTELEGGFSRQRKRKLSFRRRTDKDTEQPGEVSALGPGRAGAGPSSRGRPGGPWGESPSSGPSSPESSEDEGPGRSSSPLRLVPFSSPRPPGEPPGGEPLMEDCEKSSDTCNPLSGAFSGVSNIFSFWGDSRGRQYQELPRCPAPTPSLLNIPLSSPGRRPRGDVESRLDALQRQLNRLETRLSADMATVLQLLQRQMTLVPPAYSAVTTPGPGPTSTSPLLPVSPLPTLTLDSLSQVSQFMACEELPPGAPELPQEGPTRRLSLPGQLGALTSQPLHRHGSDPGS

Rattus norvegicus [13] = test: Antiparkinson's activity in rat assessed as reduction in DOI-induced head-twitching at 1.5 to 6 micromol/kg, IG measured after 1 hr; format: functional, organism-based; details: dose 1.5-6 µmol/kg

Row | IC50 [1] [nM] | IC50 [2] [nM] | Compound | further results
1 | > 500 | > 500 | CC(C)COc1ccc(CNC(=O)N(Cc2ccc(F)cc2)C2CCCC(N(C)C)C2)cc1 (centres undefined) | 
2 | 872 | 18.3 | CN1CCC(N(Cc2ccc(F)cn2)C(=O)NCc2ccc(CCC(F)(F)F)cc2)CC1 | 
3 | 30.5 | 27.3 | CN1CCC(N(Cc2ccc(F)cn2)C(=O)NCc2ccc(OCC(F)(F)F)c(C(F)(F)F)c2)CC1 | 
4 | > 500 | > 500 | Cc1noc(C)c1CN(C(=O)NCc1ccc(OCC(C)C)cc1)C1CCN(C)CC1 | 
5 | > 500 | > 500 | CC(C)COc1ccc(CNC(=O)N(Cc2cccc3sccc23)C2CCN(C)CC2)cc1 | Ratio IC50 [10]: > 10; Ratio IC50 [11]: > 15
6 | 101 | 110 | CC(C)COc1ccc(CNC(=O)N(Cc2ccc(F)cc2)C2CCC(N(C)C)C2)cc1 (centres undefined) | 
7 | > 500 | 75.4 | CC(C)COc1ccc(CNC(=O)N(Cc2ccc(F)cc2)C2CCN(CCN(C)C)CC2)cc1 | 
8 |  | 43.2 | CC(C)COc1ccc(CNC(=O)N(Cc2ncc(F)cc2F)C2CCN(C)CC2)cc1 | 
9 | 86.4 | 252 | CC(C)COc1ccc(CNC(=O)N(Cc2ccc(F)cc2)C2CCN(CC(=O)N(C)C)CC2)cc1 | 
10 | 8.3 | 26.4 | CC(C)Cc1ccc(CNC(=O)N(Cc2ccc(F)cn2)C2CCN(C)CC2)cc1 | 
11 | > 500 | > 500 | CC(C)COc1ccc(CNC(=O)N(Cc2cccc3[nH]cnc23)C2CCN(C)CC2)cc1 | Ratio IC50 [10]: > 10; Ratio IC50 [11]: > 15
12 | 134 | 125 | CN1CCC(N(Cc2ccc(F)cn2)C(=O)NCc2ccc(OCC(F)(F)F)c(Cl)c2)CC1 | 

Second part, the compound before the results:

Row | Compound | IC50 [1] [nM] | IC50 [2] [nM] | further results
13 | CC(C)COc1ccc(CNC(=O)N(Cc2ccc(F)nc2)C2CCN(C)CC2)cc1 | > 500 | > 500 | 
14 | CC(C)CCc1ccc(CNC(=O)N(Cc2ccc(F)cn2)C2CCN(C)CC2)cc1 |  | 67.2 | 
15 | CN1CCC(N(Cc2ccc(F)cn2)C(=O)NCc2ccc(OC(F)(F)C(F)(F)F)cc2)CC1 |  | 33.4 | 
16 | CN1CCC(N(Cc2ccc(F)cn2)C(=O)NCc2ccc(OCCCF)cc2)CC1 | 3.05 | 1.93 | half-life at 100 µM [3]: > 3.1 h; CLint scaled at 100 µM [4]: < 6.7 mL/min/kg; remaining at 100 µM [5]: 80.4%; remaining at 100 µM [6]: 87.8%; half-life at 100 µM [7]: > 3.1 h; CLint scaled at 100 µM [8]: < 13.4 mL/min/kg
17 | CC(C)c1cc2cc(CNC(=O)N(Cc3ccc(F)cn3)C3CCN(C)CC3)ccc2o1 | 64.9 |  | 
18 | CC(C)COc1ccc(CNC(=O)N(Cc2cn[nH]c2)C2CCN(C)CC2)cc1 | > 500 | > 500 | 
19 | CC(C)COc1ccc(CNC(=O)N(Cc2ccc(F)cc2)C2CCN(C)CC2)cc1 |  |  | Activity (Rattus norvegicus [9]): Active
20 | CC(C)COc1ccc(CNC(=O)N(Cc2ccc(F)cn2)C2CCN(C)CC2)cc1 |  |  | Ratio IC50 [10]: 2; Ratio IC50 [11]: 3
21 | CN1CCC(N(Cc2ccc(F)cn2)C(=O)NCc2ccc3c(c2)CCC(C)(C)O3)CC1 | 127 |  | 
22 | CN1CCC(N(Cc2ccc(F)cn2)C(=O)NCc2ccc(OCC(F)(F)F)c(Br)c2)CC1 | 8.85 | 12 | 
23 | CN1CCC(N(Cc2ccc(F)cn2)C(=O)NCc2ccc3c(c2)CC(C)(C)O3)CC1 |  |  | half-life at 100 µM [3]: 1.75 h; CLint scaled at 100 µM [4]: 11.9 mL/min/kg; remaining at 100 µM [5]: 55%; remaining at 100 µM [6]: 66.8%; half-life at 100 µM [7]: 1.06 h; IC50 [12]: 3610 nM; CLint scaled at 100 µM [8]: 37.1 mL/min/kg
24 | CN1CCC(N(Cc2ccc(F)cn2)C(=O)NCc2ccc(OCC(F)(F)F)cc2)CC1 |  |  | Activity (Rattus norvegicus [13]): Active
25 | CC(C)COc1ccc(CNC(=O)N(Cc2ccc(F)cc2)C2CC(N(C)C)C2)cc1 (centres undefined) | 159 | 139 | 
26 | CC(C)COc1ccc(CNC(=O)N(Cc2ccc(F)nn2)C2CCN(C)CC2)cc1 | > 500 |  | 
